This is an account of results in patent EP2057188B1 (priority 2006, dated 2008).

A value given as a limit tells only on which side of the number the result lay.

Assay [1] in a line: IVGTT duration of action assay, single SC injection. To be noted: compared with 0601GIP3794 (794); @ -120 min. The assay is classed as in vivo, rat.
Method: In the typical IVGTT assays the test sample was administered by IV infusion. The IV infusion of sample was initiated at t = -30min and continued through t = 90. IV glucose was given at t = 0. To determine a duration of action using the IVGTT assay, the sample was injected SC as a single injection at one time point indicated (e.g., t = -240, -120, -60 or -30) prior to administration of glucose. IV glucose was given at t = 0.
Assay [2] is classed as in vivo, NIH/Swiss mice. To be noted: 80 nmol/Kg; AUC240.
Method: Gavage (1.5g/kg) was given at t=0. Sample was taken at t=30 min.

Consider `CC[C@H](C)[C@H](NC(=O)[C@H](C)NC(=O)[C@H](CCCCN)NC(=O)[C@@H]1CCCN1C(=O)[C@H](CCCCN)NC(=O)[C@H](CCC(N)=O)NC(=O)[C@H](C)NC(=O)[C@H](CC(C)C)NC(=O)[C@H](CC(C)C)NC(=O)[C@H](Cc1c[nH]c2ccccc12)NC(=O)[C@H](CC(N)=O)NC(=O)[C@@H](NC(=O)[C@H](Cc1ccccc1)NC(=O)[C@H](CC(=O)O)NC(=O)[C@H](CCC(N)=O)NC(=O)[C@H](CCC(N)=O)NC(=O)[C@H](Cc1c[nH]cn1)NC(=O)[C@@H](NC(=O)[C@H](CCCCN)NC(=O)[C@H](CC(=O)O)NC(=O)[C@H](CCSC)NC(=O)[C@H](C)NC(=O)[C@@H](NC(=O)[C@H](CO)NC(=O)[C@H](Cc1ccc(O)cc1)NC(=O)[C@H](CC(=O)O)NC(=O)[C@H](CO)NC(=O)[C@@H](NC(=O)[C@H](Cc1ccccc1)NC(=O)[C@@H](NC(=O)CNC(=O)[C@H](CCC(=O)O)NC(=O)[C@@H](C)NC(=O)[C@@H](N)Cc1ccc(O)cc1)[C@@H](C)O)[C@@H](C)CC)[C@@H](C)CC)[C@@H](C)CC)C(C)C)C(=O)N[C@@H](CCCNC(=N)N)C(=O)N[C@@H](Cc1ccc(O)cc1)C(=O)N[C@@H](CO)C(N)=O` [0601 GIP48 16], for which, in assay [1], the “Duration In The Rat IVGTT Assay” value is reported as <794@-120 min. For the same compound, in assay [2], the “Basal Glucose Lowering at 80 nmol/Kg” value is reported as -9%, AUC240.

`CC[C@H](C)[C@H](NC(=O)[C@H](CO)NC(=O)[C@H](Cc1ccc(O)cc1)NC(=O)[C@H](CC(=O)O)NC(=O)[C@H](CO)NC(=O)[C@@H](NC(=O)[C@H](Cc1ccccc1)NC(=O)[C@@H](NC(=O)CNC(=O)[C@H](CCC(=O)O)NC(=O)[C@@H](C)NC(=O)[C@@H](N)Cc1ccc(O)cc1)[C@@H](C)O)[C@@H](C)CC)C(=O)N[C@@H](C)C(=O)N[C@@H](CCSC)C(=O)N[C@@H](CC(=O)O)C(=O)N[C@@H](CCCCN)C(=O)N[C@H](C(=O)N[C@@H](Cc1c[nH]cn1)C(=O)N[C@@H](CCC(N)=O)C(=O)N[C@@H](CCC(N)=O)C(=O)N[C@@H](CC(=O)O)C(=O)N[C@@H](Cc1ccccc1)C(=O)N[C@H](C(=O)N[C@@H](CC(N)=O)C(=O)N[C@@H](Cc1c[nH]c2ccccc12)C(=O)N[C@@H](CC(C)C)C(=O)N[C@@H](CC(C)C)C(=O)N[C@@H](C)C(=O)N[C@@H](CCC(N)=O)C(=O)N[C@@H](CCCCN)C(=O)N1CCC[C@H]1C(=O)N[C@@H](CCCCN)C(=O)N[C@@H](CO)C(=O)N[C@@H](C)C(=O)N[C@@H](CCCNC(=N)N)C(=O)N1CCC[C@H]1C(=O)N[C@@H](CO)C(N)=O)C(C)C)[C@@H](C)CC` [0601 GIP48 21]: in assay [1], the “Duration In The Rat IVGTT Assay” value was <794@-120 min. Besides, in assay [2], the “Basal Glucose Lowering at 80 nmol/Kg” value is -5%, AUC240.

For `CC[C@H](C)[C@H](NC(=O)[C@H](CO)NC(=O)[C@H](Cc1ccc(O)cc1)NC(=O)[C@H](CC(=O)O)NC(=O)[C@H](CO)NC(=O)[C@@H](NC(=O)[C@H](Cc1ccccc1)NC(=O)[C@@H](NC(=O)CNC(=O)[C@H](CCC(=O)O)NC(=O)[C@@H](C)NC(=O)[C@@H](N)Cc1ccc(O)cc1)[C@@H](C)O)[C@@H](C)CC)C(=O)N[C@@H](C)C(=O)N[C@@H](CCSC)C(=O)N[C@@H](CC(=O)O)C(=O)N[C@@H](CCCCN)C(=O)N[C@H](C(=O)N[C@@H](Cc1c[nH]cn1)C(=O)N[C@@H](CCC(N)=O)C(=O)N[C@@H](CCC(N)=O)C(=O)N[C@@H](CC(=O)O)C(=O)N[C@@H](Cc1ccccc1)C(=O)N[C@H](C(=O)N[C@@H](CC(N)=O)C(=O)N[C@@H](Cc1c[nH]c2ccccc12)C(=O)N[C@@H](CC(C)C)C(=O)N[C@@H](CC(C)C)C(=O)N[C@@H](C)C(=O)N[C@@H](CCC(N)=O)C(=O)N[C@@H](CCCCN)C(=O)N1CCC[C@H]1C(=O)N[C@@H](CCCCN)C(=O)N[C@@H](CCCCN)C(=O)N[C@@H](CC(C)C)C(=O)N[C@@H](CCCCN)C(=O)N1CCC[C@H]1C(=O)N[C@@H](CO)C(N)=O)C(C)C)[C@@H](C)CC` [0601 GIP48 22], in assay [1], the “Duration In The Rat IVGTT Assay” value is listed as <794@-120 min. Moreover, in assay [2], the “Basal Glucose Lowering at 80 nmol/Kg” value is on record as -11%, AUC240.

Regarding `CC[C@H](C)[C@H](NC(=O)[C@H](CO)NC(=O)[C@H](Cc1ccc(O)cc1)NC(=O)[C@H](CC(=O)O)NC(=O)[C@H](CO)NC(=O)[C@@H](NC(=O)[C@H](Cc1ccccc1)NC(=O)[C@@H](NC(=O)CNC(=O)[C@H](CCC(=O)O)NC(=O)[C@@H](C)NC(=O)[C@@H](N)Cc1ccc(O)cc1)[C@@H](C)O)[C@@H](C)CC)C(=O)N[C@@H](C)C(=O)N[C@@H](CCSC)C(=O)N[C@@H](CC(=O)O)C(=O)N[C@@H](CCCCN)C(=O)N[C@H](C(=O)N[C@@H](Cc1c[nH]cn1)C(=O)N[C@@H](CCC(N)=O)C(=O)N[C@@H](CCC(N)=O)C(=O)N[C@@H](CC(=O)O)C(=O)N[C@@H](Cc1ccccc1)C(=O)N[C@H](C(=O)N[C@@H](CC(N)=O)C(=O)N[C@@H](Cc1c[nH]c2ccccc12)C(=O)N[C@@H](CC(C)C)C(=O)N[C@@H](CC(C)C)C(=O)N[C@@H](C)C(=O)N[C@@H](CCC(N)=O)C(=O)N[C@@H](CCCCN)C(=O)N1CCC[C@H]1C(=O)N[C@@H](CO)C(=O)N1CCC[C@H]1C(=O)N[C@@H](CCCCN)C(=O)N[C@@H](CCCCN)C(=O)N[C@H](C(=O)N[C@@H](CCCNC(=N)N)C(=O)N[C@@H](Cc1ccc(O)cc1)C(=O)N[C@@H](CO)C(N)=O)[C@@H](C)CC)C(C)C)[C@@H](C)CC` [0601 GIP48 23], the “Duration In The Rat IVGTT Assay” value in assay [1] was <794@-120 min. For the same compound, the “Basal Glucose Lowering at 80 nmol/Kg” value in assay [2] is given as -23%, AUC2240.

Consider `CC[C@H](C)[C@H](NC(=O)[C@H](CO)NC(=O)[C@H](Cc1ccc(O)cc1)NC(=O)[C@H](CC(=O)O)NC(=O)[C@H](CO)NC(=O)[C@@H](NC(=O)[C@H](Cc1ccccc1)NC(=O)[C@@H](NC(=O)CNC(=O)[C@H](CCC(=O)O)NC(=O)[C@@H](C)NC(=O)[C@@H](N)Cc1ccc(O)cc1)[C@@H](C)O)[C@@H](C)CC)C(=O)N[C@@H](C)C(=O)N[C@@H](CCSC)C(=O)N[C@@H](CC(=O)O)C(=O)N[C@@H](CCCCN)C(=O)N[C@H](C(=O)N[C@@H](Cc1c[nH]cn1)C(=O)N[C@@H](CCC(N)=O)C(=O)N[C@@H](CCC(N)=O)C(=O)N[C@@H](CC(=O)O)C(=O)N[C@@H](Cc1ccccc1)C(=O)N[C@H](C(=O)N[C@@H](CC(N)=O)C(=O)N[C@@H](Cc1c[nH]c2ccccc12)C(=O)N[C@@H](CC(C)C)C(=O)N[C@@H](CC(C)C)C(=O)N[C@@H](C)C(=O)N[C@@H](CCC(N)=O)C(=O)N[C@@H](CCCCN)C(=O)N1CCC[C@H]1C(=O)N[C@@H](CCC(N)=O)C(=O)N[C@@H](CCCCN)C(=O)N[C@H](C(=O)N[C@@H](CCCNC(=N)N)C(=O)N[C@@H](Cc1ccc(O)cc1)C(=O)N[C@@H](CO)C(N)=O)[C@@H](C)CC)C(C)C)[C@@H](C)CC` [0601 GIP48 53], for which the “Duration In The Rat IVGTT Assay” value in assay [1] was < 794@ -120 min. Besides, the “Basal Glucose Lowering at 80 nmol/Kg” value in assay [2] is recorded as -20%, AUC240.
